Values joined by “and” are separate entries in the source; they are usually repeats but may differ in a detail not shown here. Equal entries are not always repeated.
Legend:
Assay in all cases: trFRET binding kinome profiling
ACVR1 = ACVR1 (Homo sapiens, UniProt Q04771)
Procedure: (§1) JAK activity assays using isolated kinase domains in the presence of 0.1 mM ATP and trFRET kinome profiling were conducted as described previously (17).

Aurora 1 = Aurora 1 (Homo sapiens, UniProt Q96GD4)
Procedure: as §1

BRAF = BRAF (Homo sapiens, UniProt P15056)
Procedure: as §1

BTK = BTK (Homo sapiens, UniProt Q06187)
Procedure: as §1

CAMKK2 = CAMKK2 (Homo sapiens, UniProt Q96RR4)
Procedure: as §1

CDK2 = CDK2 (Homo sapiens, UniProt P24941)
Procedure: as §1

CDK8/Cyclin C = CDK8/Cyclin C (Homo sapiens, UniProt P49336)
Procedure: as §1

CDK9/Cyclin K = CDK9/Cyclin K (Homo sapiens, UniProt P50750)
Procedure: as §1

CLK2 = CLK2 (Homo sapiens, UniProt P49760)
Procedure: as §1

CSF1R = CSF1R (Homo sapiens, UniProt P07333)
Procedure: as §1

Ck1alpha1 = Ck1alpha1 (Homo sapiens, UniProt P48729)
Procedure: as §1

DDR1 = DDR1 (Homo sapiens, UniProt Q08345)
Procedure: as §1

DYRK1A = DYRK1A (Homo sapiens, UniProt Q13627)
Procedure: as §1

DYRK1B = DYRK1B (Homo sapiens, UniProt Q9Y463)
Procedure: as §1

Erk2 = Erk2 (Homo sapiens, UniProt P28482)
Procedure: as §1

Flt1 = Flt1 (Homo sapiens, UniProt P17948)
Chain of Flt1 (P17948 27-1338, species assumed): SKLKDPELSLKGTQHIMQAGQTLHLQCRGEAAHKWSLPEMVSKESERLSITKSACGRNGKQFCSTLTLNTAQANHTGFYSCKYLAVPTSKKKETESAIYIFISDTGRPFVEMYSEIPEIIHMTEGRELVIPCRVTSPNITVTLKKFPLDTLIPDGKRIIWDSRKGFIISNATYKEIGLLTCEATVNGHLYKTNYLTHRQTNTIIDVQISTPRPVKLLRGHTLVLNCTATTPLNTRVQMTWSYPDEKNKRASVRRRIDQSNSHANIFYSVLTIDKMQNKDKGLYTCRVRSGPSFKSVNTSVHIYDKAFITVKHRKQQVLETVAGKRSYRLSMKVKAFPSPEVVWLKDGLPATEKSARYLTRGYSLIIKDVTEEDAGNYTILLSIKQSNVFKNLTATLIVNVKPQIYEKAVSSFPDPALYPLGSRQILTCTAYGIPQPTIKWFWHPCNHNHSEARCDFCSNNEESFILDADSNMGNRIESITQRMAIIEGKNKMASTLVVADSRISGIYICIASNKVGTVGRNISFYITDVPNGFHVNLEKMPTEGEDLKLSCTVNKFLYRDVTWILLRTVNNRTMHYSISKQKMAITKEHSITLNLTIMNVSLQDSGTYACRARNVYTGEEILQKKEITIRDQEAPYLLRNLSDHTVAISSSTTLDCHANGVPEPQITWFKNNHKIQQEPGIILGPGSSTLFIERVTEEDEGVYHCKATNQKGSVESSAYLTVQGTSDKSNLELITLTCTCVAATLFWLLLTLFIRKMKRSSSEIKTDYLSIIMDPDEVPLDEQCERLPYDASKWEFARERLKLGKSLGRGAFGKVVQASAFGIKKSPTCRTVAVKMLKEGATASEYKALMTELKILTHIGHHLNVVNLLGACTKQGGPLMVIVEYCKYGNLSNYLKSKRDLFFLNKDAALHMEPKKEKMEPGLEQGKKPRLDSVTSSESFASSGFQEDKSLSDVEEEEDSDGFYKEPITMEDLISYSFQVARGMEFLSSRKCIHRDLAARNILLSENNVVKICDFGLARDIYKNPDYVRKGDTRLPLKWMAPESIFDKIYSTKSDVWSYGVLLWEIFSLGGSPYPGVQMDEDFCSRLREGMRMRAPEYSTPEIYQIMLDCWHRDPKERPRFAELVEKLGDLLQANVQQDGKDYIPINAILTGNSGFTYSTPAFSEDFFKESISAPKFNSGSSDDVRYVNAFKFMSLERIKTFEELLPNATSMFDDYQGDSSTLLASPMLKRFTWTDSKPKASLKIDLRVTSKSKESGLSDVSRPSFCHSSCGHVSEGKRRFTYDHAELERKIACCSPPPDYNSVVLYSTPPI
Procedure: as §1

Fyn = Fyn (Homo sapiens, UniProt P06241)
Procedure: as §1

Gsk3b = Gsk3b (Homo sapiens, UniProt P49841)
Procedure: as §1

IKKE = IKKE (Homo sapiens, UniProt Q14164)
Procedure: as §1

InsR = InsR (Homo sapiens, UniProt P06213)
Chain of InsR (P06213 28-1382, species assumed): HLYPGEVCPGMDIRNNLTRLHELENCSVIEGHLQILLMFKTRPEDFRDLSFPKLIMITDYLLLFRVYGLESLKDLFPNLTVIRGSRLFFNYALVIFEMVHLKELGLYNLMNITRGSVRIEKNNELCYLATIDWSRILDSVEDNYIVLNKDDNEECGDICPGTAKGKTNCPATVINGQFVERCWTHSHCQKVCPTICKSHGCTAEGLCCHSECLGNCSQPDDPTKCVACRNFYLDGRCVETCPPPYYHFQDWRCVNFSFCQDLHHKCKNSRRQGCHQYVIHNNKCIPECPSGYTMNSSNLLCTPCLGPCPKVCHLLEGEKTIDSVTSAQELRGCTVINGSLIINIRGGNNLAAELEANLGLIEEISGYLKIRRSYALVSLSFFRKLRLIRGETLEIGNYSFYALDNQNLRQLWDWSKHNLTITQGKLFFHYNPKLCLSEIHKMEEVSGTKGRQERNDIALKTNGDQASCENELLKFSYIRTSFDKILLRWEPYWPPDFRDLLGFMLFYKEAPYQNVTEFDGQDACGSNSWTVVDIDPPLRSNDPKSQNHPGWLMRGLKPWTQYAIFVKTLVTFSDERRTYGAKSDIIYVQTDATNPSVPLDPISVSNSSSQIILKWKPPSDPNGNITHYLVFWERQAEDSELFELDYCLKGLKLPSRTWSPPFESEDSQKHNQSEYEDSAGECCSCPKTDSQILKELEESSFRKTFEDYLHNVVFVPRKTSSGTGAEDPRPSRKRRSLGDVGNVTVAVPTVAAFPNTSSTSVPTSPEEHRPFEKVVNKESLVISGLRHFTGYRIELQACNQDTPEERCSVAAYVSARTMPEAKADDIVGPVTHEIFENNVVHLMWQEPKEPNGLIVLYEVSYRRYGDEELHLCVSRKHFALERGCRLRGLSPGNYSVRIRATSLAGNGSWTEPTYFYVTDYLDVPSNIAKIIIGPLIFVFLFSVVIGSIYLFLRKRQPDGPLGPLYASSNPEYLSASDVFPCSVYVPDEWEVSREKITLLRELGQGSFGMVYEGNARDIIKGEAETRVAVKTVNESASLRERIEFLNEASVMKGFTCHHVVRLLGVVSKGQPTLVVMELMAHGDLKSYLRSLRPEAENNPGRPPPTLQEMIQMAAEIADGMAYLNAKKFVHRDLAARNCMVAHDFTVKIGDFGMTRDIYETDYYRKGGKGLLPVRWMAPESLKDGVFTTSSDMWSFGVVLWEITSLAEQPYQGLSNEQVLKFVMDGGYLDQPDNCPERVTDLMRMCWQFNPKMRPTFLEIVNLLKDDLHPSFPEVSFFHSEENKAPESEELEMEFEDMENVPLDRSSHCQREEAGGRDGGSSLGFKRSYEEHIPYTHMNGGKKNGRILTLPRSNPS
Procedure: as §1

JNK1 = JNK1 (Homo sapiens, UniProt P45983)
Procedure: as §1

KDR = KDR (Homo sapiens, UniProt P35968)
Procedure: as §1

MAP2K3 = MAP2K3 (Homo sapiens, UniProt P46734)
Procedure: as §1

MAP4K2 = MAP4K2 (Homo sapiens, UniProt Q12851)
Procedure: as §1

MEK1 = MEK1 (Homo sapiens, UniProt Q02750)
Procedure: as §1

MST1 = MST1 (Homo sapiens, UniProt Q13043)
Procedure: as §1

Nek2 = Nek2 (Homo sapiens, UniProt P51955)
Procedure: as §1

PDGFRA V561D = PDGFRA V561D (Homo sapiens, UniProt P16234, V561D)
Procedure: as §1

PKCtheta = PKCtheta (Homo sapiens, UniProt Q04759)
Procedure: as §1

PKCzeta = PKCzeta (Homo sapiens, UniProt Q05513)
Procedure: as §1

Pim1 = Pim1 (Homo sapiens, UniProt P11309)
Procedure: as §1

Plk3 = Plk3 (Homo sapiens, UniProt Q9H4B4)
Procedure: as §1

RET = RET (Homo sapiens, UniProt P07949)
Procedure: as §1

Rock1 = Rock1 (Homo sapiens, UniProt Q13464)
Chain of Rock1 (Q13464 whole entry, species assumed): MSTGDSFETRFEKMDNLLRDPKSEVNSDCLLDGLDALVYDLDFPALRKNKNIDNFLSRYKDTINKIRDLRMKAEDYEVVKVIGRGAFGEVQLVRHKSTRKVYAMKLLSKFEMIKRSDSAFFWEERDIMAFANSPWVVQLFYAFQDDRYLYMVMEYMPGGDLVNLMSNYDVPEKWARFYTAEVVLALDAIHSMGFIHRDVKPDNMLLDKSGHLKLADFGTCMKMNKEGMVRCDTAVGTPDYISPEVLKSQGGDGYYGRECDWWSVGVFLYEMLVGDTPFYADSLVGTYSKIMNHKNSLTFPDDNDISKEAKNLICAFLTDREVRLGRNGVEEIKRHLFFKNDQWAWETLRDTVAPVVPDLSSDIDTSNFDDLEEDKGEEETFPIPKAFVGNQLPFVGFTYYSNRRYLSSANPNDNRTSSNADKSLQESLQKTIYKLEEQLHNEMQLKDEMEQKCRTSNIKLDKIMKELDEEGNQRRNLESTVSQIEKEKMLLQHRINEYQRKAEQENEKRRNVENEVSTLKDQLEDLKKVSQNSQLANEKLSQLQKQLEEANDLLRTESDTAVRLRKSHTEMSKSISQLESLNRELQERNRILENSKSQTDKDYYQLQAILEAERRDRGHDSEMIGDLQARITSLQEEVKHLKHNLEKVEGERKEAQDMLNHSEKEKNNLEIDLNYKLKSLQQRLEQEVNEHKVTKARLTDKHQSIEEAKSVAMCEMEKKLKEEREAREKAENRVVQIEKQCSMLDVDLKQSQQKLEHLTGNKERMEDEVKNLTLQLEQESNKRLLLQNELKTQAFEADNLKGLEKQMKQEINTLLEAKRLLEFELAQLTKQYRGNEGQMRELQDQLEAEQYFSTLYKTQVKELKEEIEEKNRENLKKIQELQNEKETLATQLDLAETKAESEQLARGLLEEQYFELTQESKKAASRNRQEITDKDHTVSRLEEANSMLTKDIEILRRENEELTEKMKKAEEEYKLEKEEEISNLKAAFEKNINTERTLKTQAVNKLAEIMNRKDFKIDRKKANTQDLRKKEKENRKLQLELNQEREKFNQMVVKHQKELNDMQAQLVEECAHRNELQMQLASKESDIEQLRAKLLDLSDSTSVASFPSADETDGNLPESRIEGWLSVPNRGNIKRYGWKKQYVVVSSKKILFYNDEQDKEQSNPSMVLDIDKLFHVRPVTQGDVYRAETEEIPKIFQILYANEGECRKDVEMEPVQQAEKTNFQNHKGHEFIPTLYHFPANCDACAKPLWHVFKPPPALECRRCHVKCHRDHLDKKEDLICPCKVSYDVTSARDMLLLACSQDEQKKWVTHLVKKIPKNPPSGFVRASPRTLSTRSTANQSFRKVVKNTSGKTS
Procedure: as §1

Rock2 = Rock2 (Homo sapiens, UniProt O75116)
Procedure: as §1

Rsk2 = Rsk2 (Homo sapiens, UniProt P51812)
Procedure: as §1

SGK1 = SGK1 (Homo sapiens, UniProt O00141)
Procedure: as §1

STK16 = STK16 (Homo sapiens, UniProt O75716)
Chain of STK16 (O75716 whole entry, species assumed): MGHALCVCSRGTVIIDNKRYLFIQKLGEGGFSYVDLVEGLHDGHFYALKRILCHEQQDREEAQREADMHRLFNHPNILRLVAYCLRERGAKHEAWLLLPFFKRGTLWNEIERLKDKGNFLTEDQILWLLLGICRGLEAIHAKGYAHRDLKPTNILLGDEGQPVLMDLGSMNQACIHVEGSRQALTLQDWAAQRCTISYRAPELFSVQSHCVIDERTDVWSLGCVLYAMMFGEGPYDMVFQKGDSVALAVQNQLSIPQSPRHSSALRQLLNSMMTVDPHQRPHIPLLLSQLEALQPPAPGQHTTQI
Procedure: as §1

Syk = Syk (Homo sapiens, UniProt P43405)
Procedure: as §1

TAOK2 = TAOK2 (Homo sapiens, UniProt Q9UL54)
Procedure: as §1

TTK = TTK (Homo sapiens, UniProt P33981)
Procedure: as §1

TrkA = TrkA (Homo sapiens, UniProt P04629)
Chain of TrkA (P04629 33-796, species assumed): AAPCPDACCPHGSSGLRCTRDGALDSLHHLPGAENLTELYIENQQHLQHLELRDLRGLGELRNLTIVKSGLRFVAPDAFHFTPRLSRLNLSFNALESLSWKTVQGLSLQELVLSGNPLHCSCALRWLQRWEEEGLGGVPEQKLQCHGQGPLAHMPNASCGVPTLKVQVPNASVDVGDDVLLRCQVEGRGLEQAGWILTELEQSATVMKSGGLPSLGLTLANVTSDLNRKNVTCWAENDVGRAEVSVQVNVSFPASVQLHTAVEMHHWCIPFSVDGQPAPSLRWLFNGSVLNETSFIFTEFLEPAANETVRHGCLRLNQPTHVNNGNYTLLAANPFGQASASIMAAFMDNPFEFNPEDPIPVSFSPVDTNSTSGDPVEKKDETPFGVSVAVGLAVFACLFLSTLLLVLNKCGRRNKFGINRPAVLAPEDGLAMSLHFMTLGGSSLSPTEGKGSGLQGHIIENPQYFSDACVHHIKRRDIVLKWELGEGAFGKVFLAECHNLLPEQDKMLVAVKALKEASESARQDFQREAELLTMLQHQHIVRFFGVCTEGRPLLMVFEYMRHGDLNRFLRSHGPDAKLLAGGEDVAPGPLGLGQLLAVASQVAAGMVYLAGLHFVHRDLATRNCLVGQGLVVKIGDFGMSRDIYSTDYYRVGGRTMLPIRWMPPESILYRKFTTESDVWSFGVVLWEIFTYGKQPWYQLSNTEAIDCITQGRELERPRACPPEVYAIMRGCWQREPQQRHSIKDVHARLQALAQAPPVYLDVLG
Procedure: as §1

TrkB = TrkB (Homo sapiens, UniProt Q16620)
Procedure: as §1

TrkC = TrkC (Homo sapiens, UniProt Q16288)
Procedure: as §1

Wee1 = Wee1 (Homo sapiens, UniProt P30291)
Procedure: as §1

p38 alpha = p38 alpha (Homo sapiens, UniProt Q16539)
Procedure: as §1

CC[C@@H]1CN(C(=O)NCC(F)(F)F)C[C@@H]1c1cnc2cnc3[nH]ccc3n12 [upadacitinib, (3S,4R)-3-ethyl-4-(3H-imidazo [1,2-a]pyrrolo [2,3-e]pyrazin-8-yl)-N-(2,2,2-trifluoroethyl) pyrrolidine-1-carboxamide]
IC50 (ACVR1): > 10 µM
IC50 (Aurora 1): > 5.5 µM
IC50 (BRAF): > 10 µM
IC50 (BTK): > 10 µM
IC50 (CAMKK2): > 10 µM
IC50 (CDK2): > 10 µM
IC50 (CDK8/Cyclin C): > 10 µM
IC50 (CDK9/Cyclin K): > 10 µM
IC50 (CLK2): > 10 µM
IC50 (CSF1R): > 10 µM
IC50 (Ck1alpha1): > 10 µM
IC50 (DDR1): > 10 µM
IC50 (DYRK1A): > 10 µM
IC50 (DYRK1B): > 10 µM
IC50 (Erk2): > 10 µM
IC50 (Flt1): > 10 µM
IC50 (Fyn): > 10 µM
IC50 (Gsk3b): > 10 µM
IC50 (IKKE): > 10 µM
IC50 (InsR): > 10 µM
IC50 (JNK1): > 10 µM
IC50 (KDR): > 1.5 µM
IC50 (MAP2K3): > 10 µM
IC50 (MAP4K2): > 10 µM
IC50 (MEK1): > 10 µM
IC50 (MST1): > 10 µM
IC50 (Nek2): > 10 µM
IC50 (PDGFRA V561D): > 10 µM
IC50 (PKCtheta): 5.1 µM
IC50 (PKCzeta): > 10 µM
IC50 (Pim1): > 10 µM
IC50 (Plk3): > 10 µM
IC50 (RET): 2.4 µM
IC50 (Rock1): < 1 µM and 0.92 µM
IC50 (Rock2): < 1 µM
IC50 (Rsk2): > 9.6 µM
IC50 (SGK1): > 10 µM
IC50 (STK16): 9.7 µM
IC50 (Syk): > 10 µM
IC50 (TAOK2): > 10 µM
IC50 (TTK): > 10 µM
IC50 (TrkA): > 10 µM
IC50 (TrkB): > 10 µM
IC50 (TrkC): > 10 µM
IC50 (Wee1): > 10 µM
IC50 (p38 alpha): > 10 µM
